Holding throughout (format): in vivo
The subject of one assay is narkosierten Hund. The assay can be described thus: Blood pressure lowering in the anaesthetised dog (pentobarbital sodium), i.v. administration. The conditions noted are these: 1 mg/kg intravenous; for Blutdrucksenkung: significant lowering; for Dauer der Blutdrucksenkung: time over which lowering of at least 20 mm persists. The protocol:
(§1) 1)Die blutdrucksenkende Wirkung wurde am narkosierten Hund und an der Hochdruckratete bestimmt.
Hunde werden mit Pentobarbital-Natrium (^(R)Nembutal) (35 mg/kg i.p.) narkotisiert, die Prüfsubstanz in Dosen von 0,5-5 mg/kg. intravenös appliziert und die Blutdrucksenkung laufend über 30 bis 60 Minuten, bei längerer Wirksamkeit auch länger, fortlaufend registriert. Eine signifikante Senkung von mindestens 20 mm über mindestens 30 Minuten tritt z.B. nach Applikation der Verbindungen der Beispiele Nr. 6 und 31b in Dosen von jeweils 1 mg/kg ein.

The subject of assay [1] is mit Strophantin vergiftete Hund. The assay can be described thus: Antiarrhythmic effect in the strophanthin-poisoned dog (ventricular extrasystoles, ECG). The conditions noted are these: dog poisoned with K-Strophanthin i.v. infusion until frequent ventricular extrasystoles; 1 mg/kg intravenous; active = arrhythmia completely abolished. An excerpt:
2) Zur Prüfung auf antiarrythmische Wirkung wird der mit Strophantin vergiftete Hund verwendet (Methode: Laszlo Szekeres, Institute of Pharmacology, University Medical School of Szeged, Hungary, Methods for Evaluating Antiarrhytmic Agents" in Methods in Pharmacology I, New York 1971, Herausgeber A. Schwartz).

In assay [2] the test system is genetischen Hochdruckratte. The assay can be described thus: Blood pressure lowering in the genetically hypertensive rat, oral administration. The conditions noted are these: 15 mg/kg per os, within 18 hours. The protocol: as §1
Zur Prüfung an der genetischen Hochdruckratte werden die Substanzen oral verabreicht. Die Verbindung des Beispiels 31b bewirkt bei einer Dosierung von 15 mg/kg per os innerhalb von 18 Stunden einen Blutdruckabfall von 30 - 50 mm.

Turning to `COc1cc2c(cc1OC)N=C(N1CCC(NC(=O)c3ccccc3)CC1)CC2` [Beispiel 6], in the assay on narkosierten Hund, the Blutdrucksenkung is at least 20 mm and the “Dauer der Blutdrucksenkung” value was at least 30 Minuten.
Consider `CC(C)(C)OC(=O)NC1CCN(C2=Nc3ccccc3CC2)CC1` [Beispiel 31a, 2-(4-Tert.butyloxycarbonylamino-1-piperidyl)-3,4-dihydro-chinolin], for which the “antiarrythmische Wirkung (Beseitigung der Rhythmusstörungen)” value in assay [1] is “Rhythmusstörungen völlig zu beseitigen vermochte”.
Consider `NC1CCN(C2=Nc3ccccc3CC2)CC1` [Beispiel 31b, 2-(4-Amino-1-piperidyl)-3,4-dihydrochinolin], for which, in the assay on narkosierten Hund, the Blutdrucksenkung is at least 20 mm and the “Dauer der Blutdrucksenkung” value is on record as at least 30 Minuten. The Blutdruckabfall in assay [2] is listed as 30 - 50 mm.

For the origin of these results see patent publication EP0007525A1, “2-(4-Aminopiperidino)-3.4-dihydroquinoline derivatives, processes for their preparation, pharmaceutical compositions containing them and their use” (HOECHST AKTIENGESELLSCHAFT, priority 1978, dated 1980).
